Where “and” joins values, the source holds several entries; their conditions need not be identical. Equal entries are not always repeated.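 Dose response: 5 concentrations. Exposure: 48 h. Format: 96-well plates. Endpoint: linear interpolation; highest concentration if not reached. GI50 is the concentration that inhibits growth by half. At the TGI there is no net growth.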
The compounds below were run on MDA-MB-468 breast (assay: NCI anticancer screen, dose series, 48 h).
With CC1=C[C@@H]2c3c(c(O)c(O)c4oc5cc(O)cc(O)c5c(=O)c34)[C@@H](c3cc(O)c(O)c4oc5cc(O)cc(O)c5c(=O)c34)[C@@H]2C(C)(C)C1 the GI50 was 3.35 µM and the TGI was 16.2 µM. With CCN1C(=O)N(CC)C2C1N=C(SC)N2/N=C/C=C/c1ccccc1OC (stereo not given) the GI50 was 0.256 µM and the TGI was 0.729 µM. Compound O=C1/C(=C/c2ccc([N+](=O)[O-])o2)Oc2ccc(Cl)cc21 has a GI50 of 1.55 µM and a TGI of 3.45 µM. COc1cc(-c2ccc[nH]2)[nH]c1/C=C1\N=C(C)C(CC(=O)OCC(C)(C)C)=C1C was tested, and the GI50 was 0.082 µM and the TGI was 1.19 µM. CC(C)(C)[Si](C)(C)OC1[C@@H](COC(=O)NC(=O)CCl)O[C@@H](n2cnc3c(N)ncnc32)[C@H]1O[Si](C)(C)C(C)(C)C (stereo not given in full) gave a GI50 of 3.84 µM and a TGI of 11.1 µM. COC(=O)c1cc(-c2ccc(S(C)(=O)=O)cc2)[nH]c1N/N=C/c1c(Cl)cccc1Cl was tested, and the GI50 was 4.27 µM and the TGI was greater than 100 µM. COc1cc(C(=O)n2nc(N)c3c(C)cc(C)nc32)cc(OC)c1OC showed a GI50 of 2.92 µM and a TGI greater than 100 µM. For CNC(=O)c1cc(Oc2ccc(NC(=O)Nc3cc(C(C)(C)C)nn3-c3ccc4ncccc4c3)c(F)c2)ccn1, the GI50 was 1.95 µM and 2.43 µM and the TGI was 4.53 µM and 5.19 µM. In the case of COc1ccc(-c2[nH]ncc2Nc2cc(OC)c(OC)c(OC)c2)cc1, the GI50 is reported as 0.435 µM and the TGI is reported as 52.3 µM. O=C1Cc2cc(CCN3CCNCC3)c(Cl)cc2N1 was tested, and the GI50 was 2.24 µM and the TGI was 7.42 µM. For COc1cc(C2NC(=O)C(C#N)=C(Nc3cccc(C)c3)S2)ccc1O (stereo not given), the GI50 was greater than 100 µM and the TGI was greater than 100 µM. S=C(SSC(=S)N1CCCCC1)N1CCCCC1 was tested, and the GI50 was 16.9 µM and the TGI was 69.8 µM. C(=N\Nc1ccc2ccccc2n1)/c1ccccn1 showed a GI50 of 0.313 µM and a TGI of 2.46 µM. COc1cc2nc(-c3ccc(C(F)(F)F)cc3)cc(OCCCNCC3CCCO3)c2cc1OC (stereo not given) was tested, and the GI50 was 8.89 µM and the TGI was 23.3 µM. For O=C1NC(=NCCc2ccc(Br)cc2)S/C1=C\c1ccc2ncccc2c1, the GI50 was greater than 16.5 µM and the TGI was greater than 25 µM. With CC12O[C@H](C[C@@H](OC(=O)CCC(=O)O)[C@H]1O)n1c3ccccc3c3c4c(c5c6ccccc6n2c5c31)C(=O)NC4=O the GI50 was 1.72 µM and the TGI was 10.8 µM. For CN(C)c1ccc2[nH]c3c(C(N)=O)cc(=O)c(=O)c=3oc2c1, the GI50 was 2.02 µM and the TGI was 5.52 µM. CCOC(=O)/C=C1/SC(=Nc2ccc(C#N)cc2)N(Cc2ccco2)C1=O gave a GI50 of 2.97 µM and a TGI of 14.2 µM. With CC/C=C\C[C@H]1C/C=C2/C(=O)C(Cl)=C[C@@H]2C/C=C\CCCC(=O)O1 the GI50 was 0.309 µM and the TGI was 0.869 µM. For Oc1[nH]c2ccccc2c1C=Nc1ccc(-n2cncn2)cc1, the GI50 was greater than 20.7 µM and the TGI was greater than 25 µM. Compound O=C1C(Cl)=C(NCCCN(CCCNC2=C(Cl)C(=O)c3ccccc3C2=O)C2=C(Cl)C(=O)c3ccccc3C2=O)C(=O)c2ccccc21 has a GI50 of 1.21 µM and a TGI of 2.87 µM. COc1ccc2nc3ccccc3c(NCCNCC(C)O)c2c1 (stereo not given) was tested, and the GI50 was 0.3 µM and the TGI was 0.953 µM. For COc1ccc2c(c1)nnc1c3cccnc3[nH]c21, the GI50 was 0.0667 µM and 0.0556 µM and the TGI was 0.237 µM and 1.1 µM. Work on Cc1cc(N2CCOCC2)nc(NCc2cc(Nc3ccnc4cc(Cl)ccc34)ccc2F)n1 yielded a GI50 of 1.89 µM and a TGI of 3.91 µM. COc1ccc(-c2c(-c3ccc(C#N)c(F)c3)nc(N3CCC(N)CC3)n(C)c2=O)cc1F showed a GI50 of 7.91 µM and a TGI of 23.2 µM. Work on O=C1/C(=C/c2ccc(C(F)(F)F)cc2)COc2ccc(O)c(O)c21 yielded a GI50 of 1.53 µM and a TGI of 2.99 µM. For CNc1cc(-c2cccc(OC(F)(F)F)c2)nc2ccc(N3CCCC3)cc12, the GI50 was 2.11 µM and 1.83 µM and the TGI was 3.87 µM and 3.49 µM. Cc1c(C(N)=O)sc2nc(C)n(/N=c3\scc(-c4ccccc4)n3Cc3ccccc3)c(=O)c12 was tested, and the GI50 was 2.65 µM and the TGI was greater than 100 µM. CCc1c(C)c2cc(-n3c(-c4ccc(OC)cc4)csc3=N)c(O)c(C)c2oc1=O showed a GI50 of 1.93 µM and a TGI of 7.76 µM. Work on CCC(=O)Nc1nnc(Cc2ccc(OC)c(OC)c2)s1 yielded a GI50 greater than 100 µM and a TGI greater than 100 µM. In the case of CCOCCOCCOCCOCCOCCOCCOCCOCCOCCO (tested in a mixture with another compound), the GI50 is reported as 0.372 µM and the TGI is reported as 2.18 µM. CCS(=O)(=O)c1ccc(OC)c(Nc2ncc(-c3cccc(F)c3)o2)c1 was tested, and the GI50 was greater than 25 µM and the TGI was greater than 25 µM. COC(=O)CC1=C(C)/C(=C/c2[nH]c(-c3ccc[nH]3)cc2OC)N=C1C gave a GI50 of 0.162 µM and a TGI of 1.76 µM. CSc1nc2c(c(=O)n1C)C(c1ccccc1)C1=C(N2)/C(=C/c2ccccc2)CCC1 (stereo not given) gave a GI50 of 2.84 µM and a TGI of 29.7 µM. With CCCCCCCCN=C(NCCCCCCCC)SCc1cccc2ccccc12 the GI50 was 1.41 µM and the TGI was 2.81 µM. Compound COc1cnccc1Nc1nc(-c2nn(Cc3c(F)cc(OCCO)cc3F)c3ccccc23)ncc1OC has a GI50 of 2.26 µM and a TGI of 10.6 µM. With Fc1ccc(Nc2nc(Nc3ccc(-c4nc5ccccc5[nH]4)cc3)c3cn[nH]c3n2)cc1 the GI50 was 1.91 µM and the TGI was 3.74 µM. C=C(C)C(=O)Nc1ccc(-c2c(-c3ccc(Oc4nccc(C)n4)c(F)c3)c3c(N)ncnc3n2C)cc1 gave a GI50 of 1.83 µM and a TGI of 6.83 µM. COc1ccc([I+]c2ccc(OC)cc2)cc1 was tested, and the GI50 was 0.256 µM and the TGI was 17.9 µM. C[C@]12CCC(=O)C[C@@H]1CC[C@@H]1[C@@H]2CC[C@]2(C)[C@@H](OC(=O)N(CCCl)N=O)CC[C@@H]12 showed a GI50 of 1.06 µM and a TGI of 4.72 µM. In the case of O=C(CI)Nc1ccc(Br)cc1, the GI50 is reported as 1.83 µM and the TGI is reported as 3.74 µM. Compound CC(=O)c1c(C)c2cnc(Nc3ccc(N4CCNCC4)cn3)nc2n(C2CCCC2)c1=O has a GI50 of 3.54 µM and a TGI of 15.7 µM. Compound CN1CCN(c2ccc(NC3=CC(=O)c4ncncc4C3=O)cc2)CC1 has a GI50 of 0.189 µM and a TGI of 0.416 µM. Compound COc1ccc2c(c1)-c1c(c3cc(OC)ccc3n(CCN(C)C)c1=O)C2=O has a GI50 of 1.75 µM and a TGI of 9.19 µM. Compound Cc1cc(N(CCNc2ccnc3cc(Cl)ccc23)Cc2ccc3c(c2)OCO3)nc(N2CCCC2)n1 has a GI50 of 1.47 µM and a TGI of 3.74 µM.

Reference: PubChem BioAssay (NCI)
